pIC50: −log10 of the molar value.

As a reminder, the pIC50 is −log10 of the IC50, conventionally taken in molar units.

The first test addresses T1, protein farnesyl transferase (Bos taurus, UniProt P29702+P49355).
T1 construct: partially purified from bovine brain by ion-exchange chromatography; from tissue; host or cells: bovine brain
The experiment in a line: Inhibition of protein farnesyl transferase (dansyl-GCVLS fluorescence). In kind it is biochemical. The conditions noted are these: enzyme partially purified from bovine brain; 2 μM FPP, 2 μM dansyl GCVLS, 10 minutes at 37° C.; read-out: IC50 (PFTase). As to the method:
A) Evaluation of the Inhibition of Protein Famesyl Transferase:
The famesylation of the dansylated peptide GCVLS, catalyzed with the enzyme protein famesyl transferase results in a change in the emission spectrum of the dansyl group, and especially an increase in the emission at 505 nm when the molecule is excited at 340 nm. When measured using the spectrofluorimeter, this emission is proportional to the activity of the enzyme (Pompliano et al., J. Am. Chem. Soc. 1992; 114: 7945-7946).
55 mM TRIS/HCl pH 7.5; 5.5 mM DTT; 5.5 mM MgCl2; 110 μM ZnCl2, 0.22% B-octyl-B D-glucopyrannoside.
Farnesyl pyrophosphate (FPP), (Sigma)
Dansylated peptide dansyl-GCVLS (Neosystem/Strasbourg, France)
The protein farnesyl transferase is partially purified from bovine brain by ion-exchange chromatography on Q-sepharose (Pharmacia) (Moores et al., J. Biol. Chem. 1991, 266: 14603-14610, Reiss et al., Cell 1990, 62: 81-88).
The reaction mixture containing 2 μM of FPP, 2 μM of dansyl GCVLS with or without (zero) the amount of enzyme giving an intensity of 100 on the spectrofluorimeter after incubation for 10 minutes at 37° C., is prepared on ice.
In an Eppendorf tube, 360 μL of reaction mixture are mixed with 40 μl of 10× concentrated test product or of solvent, and incubated for 10 minutes at 37° C. The reaction is quenched on ice and the fluorescence intensity is measured (excitation at 340 nm, 4 nm slit, emission at 505 nm, 10 nm slit). The tests are performed in duplicate. The results are expressed as a percentage of inhibition. Under these conditions, the derivatives of the present invention were identified as powerful inhibitors of protein farnesyl transferase (IC50<10 μM).
Adaptation of the method to a 96-well format:
The procedure is similar to that above, except that the measurements are performed in a “Black Fluorotrack 200” 96-well device (Greiner, Poitiers, France) and the readings are performed using a “Spectrametrix Gemini” 96-well fluorimeter (Molecular Devices, Sunnyvale, Calif., USA)
In the case of `CC(C)CNC(=S)N1CCN(c2ccc(N(Cc3cnc[nH]3)S(=O)(=O)c3ccccc3)cc2)CC1` [Example 45, 4-{4-[Benzenesulfonyl-(3H-imidazol-4-ylmethyl)amino]phenyl}-1-piperazinecarbothioic acid isobutylamide], the pIC50 was 8.22. With `CCCNC(=O)N(Cc1cnc[nH]1)c1ccc(N2CCN(C(=O)c3ccc(Cl)s3)CC2)cc1` [Example 82, 1-{4-[4-(5-Chloro-2-thiophenecarbonyl)-1-piperazinyl]phenyl}-1-(3H-imidazol-4-ylmethyl)-3-propyl-urea], the pIC50 is 8.15. The same measure, in the same setting: the same measure for `N#Cc1ccc(Cn2cncc2CN(C(=O)c2ccccc2)c2ccc(N3CCN(C(=O)c4ccc(Cl)s4)CC3)cc2)cc1` [Example 108, N-{4-[4-(5-Chloro-2-thiophenecarbonyl)-1-piperazinyl]phenyl}N-[3-(4-cyanobenzyl)-3H-imidazol-4-ylmethyl]benzamide]: 8.70; for `N#Cc1ccc(Cn2cncc2CN(C(=O)c2cccs2)c2ccc(N3CCN(C(=O)c4ccc(Cl)s4)CC3)cc2)cc1` [Example 109, Thiophene-2-carboxylic acid {4-[4-(5-chloro-2-thiophenecarbonyl)-1-piperazinyl]phenyl}[3-(4-cyanobenzyl)-3H-imidazol-4-ylmethyl]amide]: 9.00; for `N#Cc1ccc(Cn2cncc2CN(C(=O)c2ccccc2Cl)c2ccc(N3CCN(C(=O)c4ccc(Cl)s4)CC3)cc2)cc1` [Example 110, 2-Chloro-N-{4-[4-(5-chloro-2-thiophenecarbonyl)-1-piperazinyl]phenylk}-N-[3-(4-cyanobenzyl)-3H-imidazol-4-ylmethyl]benzamide]: 8.70.

For `N#Cc1ccc(Cn2cncc2CN(C(=O)c2ccccc2F)c2ccc(N3CCN(C(=O)c4ccc(Cl)s4)CC3)cc2)cc1` [Example 113, N-{4-[4-(5-Chloro-2-thiophenecarbonyl)-1-piperazinyl]phenyl}-N-[3-(4-cyanobenzyl)-3H-imidazol-4-ylmethyl]-2-fluorobenzamide], the pIC50 is 8.70. Still for that read-out and setting: the same measure for `N#Cc1ccc(Cn2cncc2CN(C(=O)c2cccc(F)c2)c2ccc(N3CCN(C(=O)c4ccc(Cl)s4)CC3)cc2)cc1` [Example 114, N-{4-[4-(5-Chloro-2-thiophenecarbonyl)-1-piperazinyl]phenyl}-N-[3-(4-cyanobenzyl)-3H-imidazol-4-ylmethyl]-3-fluorobenzamide]: 8.70; for `N#Cc1ccc(Cn2cncc2CN(C(=O)c2ccc(C#N)cc2)c2ccc(N3CCN(C(=O)c4ccc(Cl)s4)CC3)cc2)cc1` [Example 123, N-{4-[4-(5-Chloro-2-thiophenecarbonyl)-1-piperazinyl]phenyl}-4-cyano-N-[3-(4-cyanobenzyl)-3H-imidazol-4-ylmethyl]-benzamide]: 8.70. The same measure, in the same setting: the same measure for `N#Cc1ccc(Cn2cncc2CN(C(=O)C2CCCCC2)c2ccc(N3CCN(C(=O)c4ccc(Cl)s4)CC3)cc2)cc1` [Example 124, Cyclohexanecarboxylic acid {4-[4-(5-chloro-2-thiophenecarbonyl)-1-piperazinyl]phenyl}-[3-(4-cyanobenzyl)-3H-imidazol-4-ylmethyl]amide]: 8.70; for `N#Cc1ccc(Cn2cncc2CN(c2ccc(N3CCN(C(=O)c4ccc(Cl)s4)CC3)cc2)S(=O)(=O)c2ccccc2C#N)cc1` [Example 126, N-{4-[4-(5-Chloro-2-thiophenecarbonyl)-1-piperazinyl]phenyl}-2-cyano-N-[3-(4-cyanobenzyl)-3H-imidazol-4-ylmethyl]benzenesulfonamide]: 9.05; for `CC(C)CNC(=S)N1CCC(c2ccc(N(Cc3cnc[nH]3)S(=O)(=O)c3ccccc3)cc2)CC1` [Example 141, 4-{4-[Benzenesulfonyl-(3H-imidazol-4-ylmethyl)amino]phenyl}piperidine-1-carbothioic acid isobutylamide]: 8.05.

Another test concerns the target T2, GGPT I (Bos taurus, UniProt P29702+Q5EAD5).
T2 construct: GGPT I is partially purified from bovine brain by ion-exchange chromatography; from tissue; host or cells: bovine brain
The experiment in a line: Inhibition of geranylgeranyl transferase protein I (3H-GGPP, RhoA-GST filter assay). Particulars: enzyme partially purified from bovine brain; 0.2 μM 3H-GGPP, 1 μM RhoA-GST, 45 minutes at 37° C.; read-out: IC50 (PGGTase). Type of test: biochemical. As to the method: B) Evaluation of the Inhibition of Geranyl Geraryl Transferase Protein I:
55 mM TRIS/HCl pH 7.5; 5.5 mM DTT; 5.5 mM MgCl2; 110 μM ZnCl2, 0.22% N-octyl-B D-glucopyrannoside.
^3H-geranylgeranyl pyrophosphate (GGPP), 66 μM, 15 CI/mmol, (Isotopchim) Rho-GST recombinant protein
GGPT I is partially purified from bovine brain by ion-exchange chromatography on Q-sepharose (Pharmacia); elution at 0.23 and 0.4 M NaCl, respectively.
The reaction mixture containing 0.2 μM of ^3H-GGPP, 1 μM of RhoA-GST with or without (zero) 5 μl of GGPT/test, is prepared on ice.
In an Eppendorf tube, 45 μl of reaction mixture are mixed with 5 μl of 10× concentrated test product or of solvent, and incubated for 45 minutes at 37° C. A 45 μl aliquot is placed on a phosphocellulose P81 filter (Whatman, Maidstone, UK) numbered, washed with 50% ethanol, phosphoric acid (0.5%) and counted by scintillation.
The tests are performed in duplicate. The results are expressed as a percentage of inhibition.
Adaptation of the Method to a 96-well Format: […]
The tests are performed in triplicate. The results are expressed as a percentage of inhibition.
With `N#Cc1ccc(Cn2cncc2CN(C(=O)c2cccs2)c2ccc(N3CCN(C(=O)c4ccc(Cl)s4)CC3)cc2)cc1` [Example 109, Thiophene-2-carboxylic acid {4-[4-(5-chloro-2-thiophenecarbonyl)-1-piperazinyl]phenyl}[3-(4-cyanobenzyl)-3H-imidazol-4-ylmethyl]amide], the pIC50 is 6.15.

These data come from US20040092524A1, “Novel aminophenyl piperazine or aminophenyl piperidine derivatives inhibiting prenyl transferase proteins and method for preparing same” (priority 2000, published 2004).
